The text below walks through data of patent US9085576B2 (AMGEN INC., priority 2013, dated 2015).

One experiment concerns the target Cathepsin D (Cat D) (Homo sapiens (Human), UniProt P07339). In words: In vitro enzymatic Cathepsin D (Cat D) FRET assay. The experiment is classed as biochemical. The settings on record: read-out: CatD IC50.
Experiment [1] deals with Beta Secretase enzyme (BACE) (Homo sapiens (Human), UniProt P56817). In words: In vitro enzymatic BACE FRET assay. The settings on record: read-out: BACE1 Enzyme assay IC50. It counts as biochemical.
Chain of Beta Secretase enzyme (BACE) (P56817 46-501): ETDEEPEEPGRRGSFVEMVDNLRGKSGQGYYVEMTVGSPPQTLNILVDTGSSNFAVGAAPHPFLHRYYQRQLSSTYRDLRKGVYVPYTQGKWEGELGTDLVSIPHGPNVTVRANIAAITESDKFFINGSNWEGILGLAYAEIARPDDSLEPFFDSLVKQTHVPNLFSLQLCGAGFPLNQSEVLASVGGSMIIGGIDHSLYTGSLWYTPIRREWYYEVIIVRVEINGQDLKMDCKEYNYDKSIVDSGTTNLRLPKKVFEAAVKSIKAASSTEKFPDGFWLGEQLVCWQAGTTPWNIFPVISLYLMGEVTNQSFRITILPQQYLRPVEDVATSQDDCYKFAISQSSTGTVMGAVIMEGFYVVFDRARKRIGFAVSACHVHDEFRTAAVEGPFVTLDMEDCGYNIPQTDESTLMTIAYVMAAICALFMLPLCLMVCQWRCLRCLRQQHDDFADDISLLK
Method: In Vitro Enzymatic BACE FRET (Fluorescence Resonance Energy Transfer) Assay (Enzyme Assay Data in the Example Table I)
The assay buffer used in this screen is 0.05 M acetate, pH 4.2, 10% DMSO final, 100 uM genapol (which is a nonionic detergent, below its Critical Micelle Concentration). […] This assay is effectively started by the addition of FRET substrate (50 nM) and the combination is incubated for one hour. The FRET assay is terminated with by addition of Tris buffer, which raises the pH to neutrality, and the fluorescence is determined. The FRET substrate is a peptide with commercially available fluorophore and quencher, on opposite sides of the BACE cleavage site.
The target of another experiment is BACE (Homo sapiens (Human), UniProt P56817). The experiment is described as follows: In vitro BACE cell-based assay (Aβ40 in conditioned medium, sandwich ELISA). (An ELISA detects its analyte on a solid surface through an enzyme-linked reagent.)
Chain of BACE (P56817 46-501, species assumed): as the sequence (P56817 46-501) above

Chain of Cathepsin D (Cat D) (P07339 65-412, species assumed): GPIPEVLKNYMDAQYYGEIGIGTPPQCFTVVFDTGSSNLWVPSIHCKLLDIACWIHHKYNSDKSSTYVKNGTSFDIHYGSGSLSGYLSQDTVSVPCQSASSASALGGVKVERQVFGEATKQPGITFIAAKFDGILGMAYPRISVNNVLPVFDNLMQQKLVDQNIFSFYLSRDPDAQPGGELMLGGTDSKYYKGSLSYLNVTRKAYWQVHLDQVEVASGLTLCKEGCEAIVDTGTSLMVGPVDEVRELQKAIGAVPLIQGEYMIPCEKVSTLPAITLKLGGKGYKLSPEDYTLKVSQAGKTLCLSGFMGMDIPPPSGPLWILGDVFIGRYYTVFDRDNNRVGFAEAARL

What is called IC50 is the midpoint of a concentration-inhibition curve. In the case of `NC1=N[C@](CF)(c2cc(NC(=O)c3nn(C(F)F)cc3Cl)cc(F)c2F)[C@H]2C[C@H]2O1` [Example 46, N-(3-((1R,5S,6R)-3-amino-5-(fluoromethyl)-2-oxa-4-azabicyclo[4.1.0]hept-3-en-5-yl)-4,5-difluorophenyl)-4-chloro-1-(difluoromethyl)-1H-pyrazole-3-carboxamide], the IC50 on Cathepsin D (Cat D) was determined as 174 µM; in experiment [1], 0.018 µM; against BACE, 0.0046 µM.
Consider `Cc1cc(C#N)cnc1C(=O)Nc1cc(F)c(F)c([C@@]2(CF)N=C(N)O[C@@H]3C[C@@H]32)c1` [Example 49], for which the concentration for half-maximal inhibition (IC50) amounted to 202 µM at Cathepsin D (Cat D), 0.0308 µM in experiment [1] and 0.0082 µM against BACE.
With `Cc1cc(C(F)(F)F)cnc1C(=O)Nc1cc(F)c(F)c([C@@]2(CF)N=C(N)O[C@@H]3C[C@@H]32)c1` [Example 51], the IC50 is 113 µM on Cathepsin D (Cat D), 0.0627 µM in experiment [1] and 0.0143 µM on BACE.
The like results for `CC#CCOc1cnc(C(=O)Nc2ccc(F)c([C@@]3(C)N=C(N)O[C@@H]4C[C@@H]43)c2)c(C)c1` [Example 56, N-(3-((1R,5S,6R)-3-amino-5-methyl-2-oxa-4-azabicyclo[4.1.0]hept-3-en-5-yl)-4-fluorophenyl)-5-(but-2-yn-1-yloxy)-3-methylpicolinamide] were, in that order, 303 µM, 0.0129 µM and 0.003 µM.
On to `CC#CCOc1cnc(C(=O)Nc2ccc(F)c([C@]3(C)N=C(N)O[C@H]4C[C@H]43)c2)c(C)c1` [Example 57, N-(3-((1S,5R,6S)-3-amino-5-methyl-2-oxa-4-azabicyclo[4.1.0]hept-3-en-5-yl)-4-fluorophenyl)-5-(but-2-yn-1-yloxy)-3-methylpicolinamide], for which the IC50 at Cathepsin D (Cat D) stood at 333 µM; in experiment [1] it was 2.25 µM; at BACE, 0.455 µM.
In the case of `NC1=N[C@](c2cc(NC(=O)c3ccc(Cl)cn3)ccc2F)(C(F)F)[C@@H]2C[C@@H]2O1` [Example 60, N-(3-((1S,5R,6S)-3-amino-5-(difluoromethyl)-2-oxa-4-azabicyclo[4.1.0]hept-3-en-5-yl)-4-fluorophenyl)-5-chloropicolinamide], the IC50 was above 400 µM on Cathepsin D (Cat D), above 40 µM in experiment [1] and above 15.6 µM against BACE.
Take `COc1cnc(C(=O)Nc2ccc(F)c([C@@]3(C(F)F)N=C(N)O[C@@H]4C[C@@H]43)c2)c(C)n1` [Example 63, N-(3((1R,5S,6R)-3-amino-5-(difluoromethyl)-2-oxa-4-azabicyclo[4.1.0]hept-3-en-5-yl)-4-fluorophenyl)-5-methoxy-3-methylpyrazine-2-carboxamide]: the IC50 on Cathepsin D (Cat D) worked out at 99.8 µM; in experiment [1], 0.0637 µM; on BACE, 0.0584 µM.
Consider `COc1cnc(C(=O)Nc2ccc(F)c([C@]3(C(F)F)N=C(N)O[C@H]4C[C@H]43)c2)c(C)n1` [Example 64, N-(3-((1S,5R,6S)-3-amino-5-(difluoromethyl)-2-oxa-4-azabicyclo[4.1.0]hept-3-en-5-yl)-4-fluorophenyl)-5-methoxy-3-methylpyrazine-2-carboxamide], for which the IC50 on Cathepsin D (Cat D) is 191 µM; in experiment [1], 6.19 µM; against BACE it was above 15.6 µM.
The like results for `C[C@]1(c2cc(NC(=O)c3ccc(Cl)cn3)ccc2F)N=C(N)O[C@@H]2C[C@@H]21` [Example 68] were, in that order, 476 µM, 0.065 µM and 0.0063 µM.
For `Cc1c(C(=O)Nc2ccc(F)c([C@@]3(C(F)F)N=C(N)O[C@@H]4C[C@@H]43)c2)nc2ccc(Cl)cn12` [Example 69], the IC50 on Cathepsin D (Cat D) was found to be 440 µM; in experiment [1], 0.126 µM; at BACE it was 0.0372 µM.
On to `COc1cnc(C(=O)Nc2ccc(F)c([C@@]3(C(F)F)N=C(N)O[C@@H]4C[C@@H]43)c2)cn1` [Example 72, N-(3-((1R,5S,6R)-3-amino-5-(difluoromethyl)-2-oxa-4-azabicyclo[4.1.0]hept-3-en-5-yl)-4-fluorophenyl)-5-methoxypyrazine-2-carboxamide], for which the figures for the half-maximal inhibitory concentration (IC50) (on Cathepsin D (Cat D); in experiment [1]; against BACE) were 1110 µM, 0.0763 µM and 0.0604 µM, respectively.
